In the NIST ThermoML archive (doi:10.1016/j.jct.2004.06.009):
± gives the expanded uncertainty stated by the source.

Assay: molar heat capacity at constant pressure
Conditions: 101.33 kPa

Compound: CC12CC3CC(C1)CC(C)(C3)C2 [1,3-dimethyladamantane]
- molar heat capacity at constant pressure (164.17 K, Crystal 2): 123.65 ± 1.3 J/K/mol
- molar heat capacity at constant pressure (165.15 K, Crystal 2): 125.01 ± 1.3 J/K/mol
- molar heat capacity at constant pressure (166.14 K, Crystal 2): 125.6 ± 1.3 J/K/mol
- molar heat capacity at constant pressure (167.12 K, Crystal 2): 126.03 ± 1.3 J/K/mol
- molar heat capacity at constant pressure (168.11 K, Crystal 2): 127.28 ± 1.3 J/K/mol
- molar heat capacity at constant pressure (169.09 K, Crystal 2): 127.61 ± 1.3 J/K/mol
- molar heat capacity at constant pressure (170.07 K, Crystal 2): 128.22 ± 1.3 J/K/mol
- molar heat capacity at constant pressure (171.06 K, Crystal 2): 129.42 ± 1.3 J/K/mol
- molar heat capacity at constant pressure (172.04 K, Crystal 2): 130.05 ± 1.3 J/K/mol
- molar heat capacity at constant pressure (173.02 K, Crystal 2): 130.24 ± 1.3 J/K/mol
- molar heat capacity at constant pressure (174 K, Crystal 2): 130.98 ± 1.3 J/K/mol
- molar heat capacity at constant pressure (174.98 K, Crystal 2): 131.94 ± 1.3 J/K/mol
- molar heat capacity at constant pressure (175.95 K, Crystal 2): 133.61 ± 1.3 J/K/mol
- molar heat capacity at constant pressure (177.89 K, Crystal 2): 134.48 ± 1.3 J/K/mol
- molar heat capacity at constant pressure (178.87 K, Crystal 2): 134.87 ± 1.3 J/K/mol
- molar heat capacity at constant pressure (179.85 K, Crystal 2): 135.66 ± 1.3 J/K/mol
- molar heat capacity at constant pressure (180.58 K, Crystal 2): 136.61 ± 1.4 J/K/mol
- molar heat capacity at constant pressure (181.56 K, Crystal 2): 136.89 ± 1.4 J/K/mol
- molar heat capacity at constant pressure (182.53 K, Crystal 2): 137.98 ± 1.4 J/K/mol
- molar heat capacity at constant pressure (183.51 K, Crystal 2): 138.41 ± 1.4 J/K/mol
- molar heat capacity at constant pressure (184.48 K, Crystal 2): 139.16 ± 1.4 J/K/mol
- molar heat capacity at constant pressure (185.46 K, Crystal 2): 140.28 ± 1.4 J/K/mol
- molar heat capacity at constant pressure (186.43 K, Crystal 2): 141.09 ± 1.4 J/K/mol
- molar heat capacity at constant pressure (187.4 K, Crystal 2): 142.02 ± 1.4 J/K/mol
- molar heat capacity at constant pressure (189.35 K, Crystal 2): 143.47 ± 1.4 J/K/mol
- molar heat capacity at constant pressure (190.3 K, Crystal 2): 143.86 ± 1.4 J/K/mol
- molar heat capacity at constant pressure (194.17 K, Crystal 2): 146.97 ± 1.4 J/K/mol
- molar heat capacity at constant pressure (195.13 K, Crystal 2): 148.03 ± 1.4 J/K/mol
- molar heat capacity at constant pressure (197.07 K, Crystal 2): 149.99 ± 1.4 J/K/mol
- molar heat capacity at constant pressure (198.04 K, Crystal 2): 150.21 ± 1.4 J/K/mol
- molar heat capacity at constant pressure (198.92 K, Crystal 2): 151.08 ± 1.4 J/K/mol
- molar heat capacity at constant pressure (199.88 K, Crystal 2): 152.08 ± 1.4 J/K/mol
- molar heat capacity at constant pressure (201.81 K, Crystal 2): 154.34 ± 1.4 J/K/mol
- molar heat capacity at constant pressure (202.78 K, Crystal 2): 154.59 ± 1.4 J/K/mol
- molar heat capacity at constant pressure (203.74 K, Crystal 2): 155.44 ± 1.4 J/K/mol
- molar heat capacity at constant pressure (204.71 K, Crystal 2): 156.27 ± 1.4 J/K/mol
- molar heat capacity at constant pressure (205.67 K, Crystal 2): 156.84 ± 1.4 J/K/mol
- molar heat capacity at constant pressure (206.64 K, Crystal 2): 157.68 ± 1.4 J/K/mol
- molar heat capacity at constant pressure (207.51 K, Crystal 2): 158.4 ± 1.4 J/K/mol
- molar heat capacity at constant pressure (208.55 K, Crystal 2): 158.98 ± 1.4 J/K/mol
- molar heat capacity at constant pressure (209.51 K, Crystal 2): 160.26 ± 1.4 J/K/mol
- molar heat capacity at constant pressure (210.47 K, Crystal 2): 161.38 ± 1.4 J/K/mol
- molar heat capacity at constant pressure (211.43 K, Crystal 2): 162.2 ± 1.4 J/K/mol
- molar heat capacity at constant pressure (212.27 K, Crystal 2): 162.95 ± 1.4 J/K/mol
- molar heat capacity at constant pressure (213.23 K, Crystal 2): 163.97 ± 1.5 J/K/mol
- molar heat capacity at constant pressure (214.19 K, Crystal 2): 164.82 ± 1.5 J/K/mol
- molar heat capacity at constant pressure (215.15 K, Crystal 2): 165.6 ± 1.5 J/K/mol
- molar heat capacity at constant pressure (216.12 K, Crystal 2): 166.3 ± 1.5 J/K/mol
- molar heat capacity at constant pressure (217.08 K, Crystal 2): 166.99 ± 1.5 J/K/mol
- molar heat capacity at constant pressure (218.03 K, Crystal 2): 167.93 ± 1.5 J/K/mol
- molar heat capacity at constant pressure (218.99 K, Crystal 2): 169.35 ± 1.5 J/K/mol
- molar heat capacity at constant pressure (219.95 K, Crystal 2): 170.97 ± 1.5 J/K/mol
- molar heat capacity at constant pressure (225.79 K, Crystal 1): 199.33 ± 1.6 J/K/mol
- molar heat capacity at constant pressure (226.66 K, Crystal 1): 199.97 ± 1.6 J/K/mol
- molar heat capacity at constant pressure (227.53 K, Crystal 1): 201.06 ± 1.6 J/K/mol
- molar heat capacity at constant pressure (228.4 K, Crystal 1): 201.46 ± 1.6 J/K/mol
- molar heat capacity at constant pressure (230.04 K, Crystal 1): 202.98 ± 1.6 J/K/mol
- molar heat capacity at constant pressure (230.88 K, Crystal 1): 203.84 ± 1.9 J/K/mol
- molar heat capacity at constant pressure (230.9 K, Crystal 1): 202.87 ± 1.9 J/K/mol
- molar heat capacity at constant pressure (231.76 K, Crystal 1): 203.35 ± 1.6 J/K/mol
- molar heat capacity at constant pressure (232.42 K, Crystal 1): 205.24 ± 1.6 J/K/mol
- molar heat capacity at constant pressure (233.95 K, Crystal 1): 206.13 ± 1.6 J/K/mol
- molar heat capacity at constant pressure (235.48 K, Crystal 1): 207.28 ± 1.6 J/K/mol
- molar heat capacity at constant pressure (237 K, Crystal 1): 208.26 ± 1.6 J/K/mol
- molar heat capacity at constant pressure (238.51 K, Crystal 1): 209.76 ± 1.6 J/K/mol
- molar heat capacity at constant pressure (240.02 K, Crystal 1): 210.33 ± 1.6 J/K/mol
- molar heat capacity at constant pressure (241.45 K, Crystal 1): 210.84 ± 1.6 J/K/mol
- molar heat capacity at constant pressure (242.96 K, Crystal 1): 212.78 ± 1.6 J/K/mol
- molar heat capacity at constant pressure (244.46 K, Crystal 1): 214.29 ± 1.7 J/K/mol
- molar heat capacity at constant pressure (251.29 K, Liquid): 225.79 ± 1.7 J/K/mol
- molar heat capacity at constant pressure (252.68 K, Liquid): 226.58 ± 1.7 J/K/mol
- molar heat capacity at constant pressure (254.08 K, Liquid): 227.55 ± 1.7 J/K/mol
- molar heat capacity at constant pressure (255.49 K, Liquid): 228.41 ± 1.7 J/K/mol
- molar heat capacity at constant pressure (256.89 K, Liquid): 229.48 ± 1.7 J/K/mol
- molar heat capacity at constant pressure (258.3 K, Liquid): 230.29 ± 1.7 J/K/mol
- molar heat capacity at constant pressure (259.7 K, Liquid): 231 ± 1.7 J/K/mol
- molar heat capacity at constant pressure (261.1 K, Liquid): 232.08 ± 1.7 J/K/mol
- molar heat capacity at constant pressure (262.5 K, Liquid): 232.76 ± 1.7 J/K/mol
- molar heat capacity at constant pressure (263.89 K, Liquid): 233.85 ± 1.7 J/K/mol
- molar heat capacity at constant pressure (265.29 K, Liquid): 235.31 ± 1.7 J/K/mol
- molar heat capacity at constant pressure (266.68 K, Liquid): 235.54 ± 1.7 J/K/mol
- molar heat capacity at constant pressure (268.08 K, Liquid): 236.58 ± 1.8 J/K/mol
- molar heat capacity at constant pressure (269.46 K, Liquid): 237.84 ± 1.8 J/K/mol
- molar heat capacity at constant pressure (270.85 K, Liquid): 239.09 ± 1.8 J/K/mol
- molar heat capacity at constant pressure (272.24 K, Liquid): 239.93 ± 1.8 J/K/mol
- molar heat capacity at constant pressure (273.56 K, Liquid): 240.47 ± 1.8 J/K/mol
- molar heat capacity at constant pressure (274.94 K, Liquid): 241.87 ± 1.8 J/K/mol
- molar heat capacity at constant pressure (277.72 K, Liquid): 243.58 ± 1.8 J/K/mol
- molar heat capacity at constant pressure (279.1 K, Liquid): 244.65 ± 1.8 J/K/mol
- molar heat capacity at constant pressure (280.48 K, Liquid): 245.61 ± 1.8 J/K/mol
- molar heat capacity at constant pressure (281.85 K, Liquid): 246.79 ± 1.8 J/K/mol
- molar heat capacity at constant pressure (283.23 K, Liquid): 247.54 ± 1.8 J/K/mol
- molar heat capacity at constant pressure (284.61 K, Liquid): 248.53 ± 1.8 J/K/mol
- molar heat capacity at constant pressure (285.98 K, Liquid): 249.45 ± 1.8 J/K/mol
- molar heat capacity at constant pressure (287.36 K, Liquid): 250.28 ± 1.8 J/K/mol
- molar heat capacity at constant pressure (288.73 K, Liquid): 251.39 ± 1.8 J/K/mol
- molar heat capacity at constant pressure (290.1 K, Liquid): 252.27 ± 1.8 J/K/mol
- molar heat capacity at constant pressure (291.46 K, Liquid): 253.18 ± 1.8 J/K/mol
- molar heat capacity at constant pressure (292.84 K, Liquid): 254.46 ± 1.8 J/K/mol
- molar heat capacity at constant pressure (294.2 K, Liquid): 254.72 ± 1.8 J/K/mol
- molar heat capacity at constant pressure (295.48 K, Liquid): 256.04 ± 1.8 J/K/mol
- molar heat capacity at constant pressure (296.85 K, Liquid): 256.83 ± 1.8 J/K/mol
- molar heat capacity at constant pressure (298.22 K, Liquid): 258.31 ± 1.8 J/K/mol
- molar heat capacity at constant pressure (299.58 K, Liquid): 259.27 ± 1.8 J/K/mol
- molar heat capacity at constant pressure (300.95 K, Liquid): 260.05 ± 1.8 J/K/mol
- molar heat capacity at constant pressure (302.3 K, Liquid): 260.79 ± 1.8 J/K/mol
- molar heat capacity at constant pressure (303.66 K, Liquid): 261.66 ± 1.9 J/K/mol
- molar heat capacity at constant pressure (306.37 K, Liquid): 263.51 ± 1.9 J/K/mol
- molar heat capacity at constant pressure (307.73 K, Liquid): 264.36 ± 1.9 J/K/mol
- molar heat capacity at constant pressure (309.08 K, Liquid): 265.4 ± 1.9 J/K/mol
- molar heat capacity at constant pressure (310.42 K, Liquid): 266.59 ± 1.9 J/K/mol
- molar heat capacity at constant pressure (311.76 K, Liquid): 267.05 ± 1.9 J/K/mol
- molar heat capacity at constant pressure (313.08 K, Liquid): 268.41 ± 1.9 J/K/mol
- molar heat capacity at constant pressure (314.41 K, Liquid): 269.34 ± 1.9 J/K/mol
- molar heat capacity at constant pressure (315.76 K, Liquid): 270.21 ± 1.9 J/K/mol
- molar heat capacity at constant pressure (317 K, Liquid): 270.69 ± 1.9 J/K/mol
- molar heat capacity at constant pressure (318.33 K, Liquid): 272.36 ± 1.9 J/K/mol
- molar heat capacity at constant pressure (319.67 K, Liquid): 272.93 ± 1.9 J/K/mol
- molar heat capacity at constant pressure (321.02 K, Liquid): 273.59 ± 1.9 J/K/mol
- molar heat capacity at constant pressure (322.36 K, Liquid): 274.52 ± 1.9 J/K/mol
- molar heat capacity at constant pressure (323.7 K, Liquid): 275.69 ± 1.9 J/K/mol
- molar heat capacity at constant pressure (325.04 K, Liquid): 276.85 ± 1.9 J/K/mol
- molar heat capacity at constant pressure (326.38 K, Liquid): 276.96 ± 1.9 J/K/mol
- molar heat capacity at constant pressure (327.72 K, Liquid): 278.17 ± 1.9 J/K/mol
- molar heat capacity at constant pressure (329.06 K, Liquid): 279.49 ± 1.9 J/K/mol
- molar heat capacity at constant pressure (330.4 K, Liquid): 280.25 ± 1.9 J/K/mol
- molar heat capacity at constant pressure (331.73 K, Liquid): 281.52 ± 1.9 J/K/mol
- molar heat capacity at constant pressure (334.39 K, Liquid): 283.43 ± 1.9 J/K/mol
- molar heat capacity at constant pressure (335.72 K, Liquid): 284.46 ± 1.9 J/K/mol
- molar heat capacity at constant pressure (337.04 K, Liquid): 285.09 ± 1.9 J/K/mol
- molar heat capacity at constant pressure (338.23 K, Liquid): 285.9 ± 1.9 J/K/mol
- molar heat capacity at constant pressure (339.56 K, Liquid): 286.67 ± 1.9 J/K/mol
- molar heat capacity at constant pressure (340.88 K, Liquid): 287.92 ± 1.9 J/K/mol
- molar heat capacity at constant pressure (342.17 K, Liquid): 289.16 ± 2 J/K/mol
- molar heat capacity at constant pressure (343.47 K, Liquid): 290.19 ± 2 J/K/mol
- molar heat capacity at constant pressure (344.79 K, Liquid): 291.02 ± 2 J/K/mol
- molar heat capacity at constant pressure (346.09 K, Liquid): 292.18 ± 2 J/K/mol
- molar heat capacity at constant pressure (347.39 K, Liquid): 292.25 ± 2 J/K/mol
- molar heat capacity at constant pressure (348.71 K, Liquid): 293.14 ± 2 J/K/mol
- molar heat capacity at constant pressure (350.02 K, Liquid): 294.11 ± 2 J/K/mol
- molar heat capacity at constant pressure (351.34 K, Liquid): 294.99 ± 2 J/K/mol
- molar heat capacity at constant pressure (352.65 K, Liquid): 295.66 ± 2 J/K/mol
- molar heat capacity at constant pressure (353.96 K, Liquid): 296.46 ± 2 J/K/mol
- molar heat capacity at constant pressure (355.26 K, Liquid): 297.51 ± 2 J/K/mol
- molar heat capacity at constant pressure (356.57 K, Liquid): 298.73 ± 2 J/K/mol
- molar heat capacity at constant pressure (357.86 K, Liquid): 298.97 ± 2 J/K/mol
- molar heat capacity at constant pressure (359 K, Liquid): 299.74 ± 2 J/K/mol
